Assay results reported in US20080058579A1, “Compositions and methods for treating disease utilizing a combination of radioactive therapy and cell-cycle inhibitors” (Angiotech International AG, priority 1999, published 2008).

Tested on: PC3 human prostate cells
Assay: In vivo treatment model using a locally administered cell cycle inhibitor with local radiation
Details: FIG. 16; for percent reduction in tumor volume: one week after treatment
Text: This animal model is used to determine the effectiveness of a locally administered cell cycle inhibitor (e.g., paclitaxel) in conjunction with a locally administered radiation source in treating a proliferative disease, specifically, a cancer. The relative change in tumor volume measured in tumor bearing mice receiving various treatments will be used to gauge the therapy's effectiveness relative to use of local radiation alone or locally administered cell cycle inhibitor alone.
The methods used are as follows. Cancer cells (specifically PC3) human prostate cells, American Type Culture Collection, Rockville Md.) are maintained in DMEM solution with 5% heat-inactivated fetal calf serum. Male SCID mice are inoculated with approximately 1×10^6 cells subcutaneously in the flank region. The tumor injection sites are followed by visual inspection or palpation. Tumor volume is measured using calipers. The tumor is allowed to grow until it reaches a treatable volume of 100-200 mm^3.
At this time the mice are treated as follows. Approximately six brachytherapy seeds are implanted adjacent to the tumor to deliver a local radiation dose of 25-40 Gy (I^125 radiation source). A polymeric paste (100 μl) containing 50 μg paclitaxel (0.5% w/w) is injected subcutaneously adjacent to or into the tumor. The following treatment groups were studied (10 mice per group). 1) Control paste without paclitaxel and non-radioactive (cold) seeds. 2) Control paste and radioactive seeds. 3) 0.5% w/w paclitaxel loaded paste and cold seeds. 4) 0.5% w/w paclitaxel loaded paste and radioactive seeds.
Tumor size is measured at twice-weekly intervals using calipers. An investigator blinded to the experimental groups will conduct the measurements. Caliper measured dimensions may be taken in two (length (L), width (W)) or three dimensions (Height (H)). […]
The animal data are analyzed as follows. The means and standard deviations of the tumor measurements are determined and plotted from the initial day of caliper measurement until the final measurement. […]

## CC(=O)O[C@H]1C(=O)[C@@]2(C)[C@H]([C@H](OC(=O)c3ccccc3)[C@]3(O)C[C@H](OC(=O)[C@H](O)[C@@H](NC(=O)c4ccccc4)c4ccccc4)C(C)=C1C3(C)C)[C@]1(OC(C)=O)CO[C@@H]1C[C@@H]2O [paclitaxel]
One week after treatment with locally administered radiation (I-125) and locally administered paclitaxel, n=9 per treatment
  tumor volume: decreased
Only one of the two treatments (paclitaxel alone)
  percent reduction in tumor volume: lesser reduction
Paclitaxel paste (0.5% w/w) and I-125 seeds given in combination
  percent reduction in tumor volume: greatest
